Assay results published in ChEMBL document CHEMBL3885861, “Open TG-GATES”.

Species: Rattus norvegicus
Experiment: Open TG-GATES - Regimen: Single
Assay type: toxicity, organism-based, Sprague-Dawley
Parameters: regimen Single, gender Male, age 6 weeks
Details: in vivo, po, 200 mg/kg, route gavage, dose level High; for APTT / Bas / Eos / Fbg / Hb / Ht / Lym / MCH / MCHC / MCV / Mono / Neu / PT / Plat / RBC / Ret / WBC: tissue Blood; for KIDNEY_L / KIDNEY_R / KIDNEY_TOTAL: tissue Kidney; for LIVER: tissue Liver; for A/G / ALP / ALT / AST / BUN / CRE / Ca / Cl / DBIL / GLC / IP / K / LDH / Na / PL / RALB / TBIL / TC / TG / TP / gamma-GTP: tissue Plasma

`CC(CN1c2ccccc2Sc2ccccc21)N(C)C` (configuration not stated) [PROMETHAZINE] showed a TERMINAL_BW (3 h) of 219.2 g, an APTT (3 h) of 23.5 s and a Bas (3 h) of 0%. The Eos (3 h) was 0.8%, the Fbg (3 h) was 315.2 mg/dL and the Hb (3 h) was 13.5 g/dL. For the same compound, the Ht (3 h) was 40.9%, the Lym (3 h) was 78.4% and the MCH (3 h) was 21 pg. The MCHC (3 h) was 32.9%, the MCV (3 h) was 63.9 fL and the Mono (3 h) was 3%. It also gave a Neu (3 h) of 17%, a PT (3 h) of 16.4 s and a Plat (3 h) of 126.9 x10_4/uL. It also gave an RBC (3 h) of 640.8 x10_4/ul, a Ret (3 h) of 7.8% and a WBC (3 h) of 66.9 x10_2/uL. It also gave a KIDNEY_L (3 h) of 0.9 g, a KIDNEY_R (3 h) of 1 g and a KIDNEY_TOTAL (3 h) of 1.9 g. The LIVER (3 h) was 9.7 g, the A/G (3 h) was 1.3 and the ALP (3 h) was 1534.6 IU/L. The ALT (3 h) was 59 IU/L, the AST (3 h) was 90.2 IU/L and the BUN (3 h) was 11.8 mg/dL. It also gave a CRE (3 h) of 0.1 mg/dL, a Ca (3 h) of 10.8 mg/dL and a Cl (3 h) of 105.4 meq/L. For the same compound, the DBIL (3 h) was 0.036 mg/dL, the GLC (3 h) was 181 mg/dL and the IP (3 h) was 10.1 mg/dL. For the same compound, the K (3 h) was 4.3 meq/L, the LDH (3 h) was 211.8 IU/L and the Na (3 h) was 141.6 meq/L. It also gave a PL (3 h) of 135.4 mg/dL, an RALB (3 h) of 3.2 g/dL and a TBIL (3 h) of 0.024 mg/dL. It also gave a TC (3 h) of 77.2 mg/dL, a TG (3 h) of 47.4 mg/dL and a TP (3 h) of 5.6 g/dL. It also gave a gamma-GTP (3 h) of 1.2 IU/L, a TERMINAL_BW (6 h) of 215.1 g and an APTT (6 h) of 24 s. The Bas (6 h) was 0%, the Eos (6 h) was 0.4% and the Fbg (6 h) was 348.2 mg/dL. For the same compound, the Hb (6 h) was 13.5 g/dL, the Ht (6 h) was 40.8% and the Lym (6 h) was 72.4%. For the same compound, the MCH (6 h) was 20.7 pg, the MCHC (6 h) was 33.1% and the MCV (6 h) was 62.7 fL. It also gave a Mono (6 h) of 2.6%, a Neu (6 h) of 23.4% and a PT (6 h) of 16.5 s. For the same compound, the Plat (6 h) was 123.7 x10_4/uL, the RBC (6 h) was 650.4 x10_4/ul and the Ret (6 h) was 7.5%. It also gave a WBC (6 h) of 56.6 x10_2/uL, a KIDNEY_L (6 h) of 0.9 g and a KIDNEY_R (6 h) of 0.9 g. It also gave a KIDNEY_TOTAL (6 h) of 1.9 g, an LIVER (6 h) of 9.1 g and an A/G (6 h) of 1.2. For the same compound, the ALP (6 h) was 1235.6 IU/L, the ALT (6 h) was 44.8 IU/L and the AST (6 h) was 77.8 IU/L. It also gave a BUN (6 h) of 9.8 mg/dL, a CRE (6 h) of 0.2 mg/dL and a Ca (6 h) of 10.7 mg/dL. The Cl (6 h) was 106.4 meq/L, the DBIL (6 h) was 0.018 mg/dL and the GLC (6 h) was 184.8 mg/dL. It also gave an IP (6 h) of 9.4 mg/dL, a K (6 h) of 4.4 meq/L and an LDH (6 h) of 237.2 IU/L. It also gave a Na (6 h) of 141 meq/L, a PL (6 h) of 130.2 mg/dL and an RALB (6 h) of 3.1 g/dL. It also gave a TBIL (6 h) of 0.016 mg/dL, a TC (6 h) of 76 mg/dL and a TG (6 h) of 42 mg/dL. The TP (6 h) was 5.7 g/dL, the gamma-GTP (6 h) was 1.4 IU/L and the TERMINAL_BW (9 h) was 208.1 g. It also gave an APTT (9 h) of 24 s, a Bas (9 h) of 0% and an Eos (9 h) of 0.6%. The Fbg (9 h) was 316.4 mg/dL, the Hb (9 h) was 13.6 g/dL and the Ht (9 h) was 41.5%. For the same compound, the Lym (9 h) was 76%, the MCH (9 h) was 20.4 pg and the MCHC (9 h) was 32.9%. The MCV (9 h) was 62.2 fL, the Mono (9 h) was 2.2% and the Neu (9 h) was 20.8%. For the same compound, the PT (9 h) was 16.4 s, the Plat (9 h) was 129.1 x10_4/uL and the RBC (9 h) was 667.2 x10_4/ul. The Ret (9 h) was 7.4%, the WBC (9 h) was 67.2 x10_2/uL and the KIDNEY_L (9 h) was 0.9 g. The KIDNEY_R (9 h) was 0.9 g, the KIDNEY_TOTAL (9 h) was 1.8 g and the LIVER (9 h) was 8.4 g. The A/G (9 h) was 1.2, the ALP (9 h) was 1643.2 IU/L and the ALT (9 h) was 39.6 IU/L. The AST (9 h) was 69.2 IU/L, the BUN (9 h) was 10 mg/dL and the CRE (9 h) was 0.2 mg/dL. It also gave a Ca (9 h) of 10.5 mg/dL, a Cl (9 h) of 106.2 meq/L and a DBIL (9 h) of 0.026 mg/dL. It also gave a GLC (9 h) of 187 mg/dL, an IP (9 h) of 9.1 mg/dL and a K (9 h) of 4.2 meq/L. The LDH (9 h) was 178.8 IU/L, the Na (9 h) was 141 meq/L and the PL (9 h) was 133.6 mg/dL. The RALB (9 h) was 3.1 g/dL, the TBIL (9 h) was 0.016 mg/dL and the TC (9 h) was 75.6 mg/dL. It also gave a TG (9 h) of 43 mg/dL, a TP (9 h) of 5.6 g/dL and a gamma-GTP (9 h) of 1 IU/L. It also gave a TERMINAL_BW (24 h) of 209.6 g, an APTT (24 h) of 22.3 s and a Bas (24 h) of 0%. It also gave an Eos (24 h) of 0.8%, a Fbg (24 h) of 311.2 mg/dL and a Hb (24 h) of 13.7 g/dL. It also gave a Ht (24 h) of 41.5%, a Lym (24 h) of 77.8% and an MCH (24 h) of 20.1 pg. For the same compound, the MCHC (24 h) was 33%, the MCV (24 h) was 60.8 fL and the Mono (24 h) was 2.4%. For the same compound, the Neu (24 h) was 19%, the PT (24 h) was 16.8 s and the Plat (24 h) was 138.5 x10_4/uL. The RBC (24 h) was 684.4 x10_4/ul, the Ret (24 h) was 6.4% and the WBC (24 h) was 71.5 x10_2/uL. The KIDNEY_L (24 h) was 0.9 g, the KIDNEY_R (24 h) was 0.9 g and the KIDNEY_TOTAL (24 h) was 1.9 g. The LIVER (24 h) was 8.6 g, the A/G (24 h) was 1.3 and the ALP (24 h) was 1472.4 IU/L. The ALT (24 h) was 40.8 IU/L, the AST (24 h) was 68 IU/L and the BUN (24 h) was 14.6 mg/dL. It also gave a CRE (24 h) of 0.2 mg/dL, a Ca (24 h) of 10.7 mg/dL and a Cl (24 h) of 107.6 meq/L. It also gave a DBIL (24 h) of 0.018 mg/dL, a GLC (24 h) of 185.2 mg/dL and an IP (24 h) of 8.3 mg/dL. The K (24 h) was 4.2 meq/L, the LDH (24 h) was 190 IU/L and the Na (24 h) was 142.4 meq/L. It also gave a PL (24 h) of 139 mg/dL, an RALB (24 h) of 3.1 g/dL and a TBIL (24 h) of 0.018 mg/dL. It also gave a TC (24 h) of 79.4 mg/dL, a TG (24 h) of 43.4 mg/dL and a TP (24 h) of 5.6 g/dL. For the same compound, the gamma-GTP (24 h) was 1 IU/L.
